# ChEMBL document CHEMBL1123820 (J Med Chem, 1987)
# Calls of active or inactive are those of the source. The rule behind the calls is not given here. Where a SMILES comes first, the peptide text is derived from it. [ ]: non-standard residue; d: D form. The star is where a group is joined. Orn = NCCC[C@H](N)C(=O)O; OBn = c1ccc(CO*)cc1
# How the values were obtained:
# Cavia porcellus [1] = species on record: Cavia porcellus; experiment: Relative activity was measured in vitro with respect to substance P (SP) in guinea pig ileum; format: functional
# Rattus norvegicus [2] = species on record: Rattus norvegicus; experiment: Relative activity was measured in vitro with respect to substance P (SP) in rat colon muscularis mucosae; format: functional, Muscularis mucosa
# Cavia porcellus [3] = species on record: Cavia porcellus; experiment: Relative activity was measured in vitro with respect to substance P (SP) in guinea pig ileum at a concentration of 10 uM; Inactive; format: functional
# Rattus norvegicus [4] = species on record: Rattus norvegicus; experiment: Relative activity was measured in vitro with respect to substance P (SP) in rat colon muscularis mucosae at a concentration of 10 uM; Inactive; format: functional; conditions: Muscularis mucosa
Compound,Relative activity (Cavia porcellus [1]),Relative activity (Rattus norvegicus [2]),Relative activity (Cavia porcellus [3]),Relative activity (Rattus norvegicus [4])
CC(C)C[C@H](NC(=O)CNC(=O)[C@H](Cc1ccccc1)NC(=O)[C@H](Cc1ccccc1)NC(=O)[C@@H](N)CCCN)C(=O)N[C@@H](CCC(=O)OCc1ccccc1)C(N)=O (H-[Orn]FFGLE(OBn)-NH2),0.14,0.61,,
CC(C)C[C@H](NC(=O)CNC(=O)[C@H](Cc1ccccc1)NC(=O)[C@H](Cc1ccccc1)NC(=O)[C@@H](N)CCCN)C(=O)N[C@@H](CCC(=O)O)C(N)=O (H-[Orn]FFGLE-NH2),0.00058,<0.01,,
CC(C)C[C@H](NC(=O)CNC(=O)[C@H](Cc1ccccc1)NC(=O)[C@H](Cc1ccccc1)NC(=O)[C@@H](N)CCCN)C(=O)N[C@@H](CCCCN)C(N)=O (H-[Orn]FFGLK-NH2),,,inactive,inactive
CSCC[C@H](NC(=O)[C@H](CC(C)C)NC(=O)CNC(=O)[C@H](Cc1ccccc1)NC(=O)[C@H](Cc1ccccc1)NC(=O)[C@@H](N)CCCN)C(N)=O (H-[Orn]FFGLM-NH2),0.39,0.36,,
CC(C)C[C@H](NC(=O)CNC(=O)[C@H](Cc1ccccc1)NC(=O)[C@H](Cc1ccccc1)NC(=O)[C@@H](N)CCCN)C(=O)N[C@@H](CCC(N)=O)C(N)=O (H-[Orn]FFGLQ-NH2),0.0022,<0.01,,
H-QFFGLM-NH2,0.3,0.076,,
